Source: publication PMC11181328 (Journal of Medicinal Chemistry, 2024)
Read-outs that look alike come from different tables or passages of the source.

Tests used:
DOR = biological target: T1, DOR (Homo sapiens, UniProt P41143); assay: Competitive radioligand binding assay, DOR
T1 construct: expressed in transfected cells; membrane homogenate

[1] = Drug distribution study (brain and plasma, LC-MS/MS); assay type: in vivo, mouse; conditions: 0.1 mg/kg s.c.; for Kp at 5 min / Kp at 10 min / Kp at 0.5 h / Kp at 1 h: Swiss Webster, mouse, sc, read-out: B/P (brain-to-plasma concentration ratio); for Kp at 0.5 h: 30 min; for Kp at 1 h: 60 min
Protocol: To examine the potential for these compounds to exert their effects on the central nervous system, a drug distribution study monitoring blood–brain barrier penetration was used. […] Plasma and brain homogenate were then analyzed via liquid chromatography with tandem mass spectrometry (LC-MS/MS) to allow calculation of brain-to-plasma ratios.[78]
The test compound was administered s.c., and a group of Swiss Webster mice was euthanized by decapitation at each time point (5, 10, 30, 60 min post injection) allowing whole brain and blood samples to be harvested. Brain samples were washed with saline to ensure removal of any blood on the isolated brain and were then immersed in 300 μL saline. Blood samples were centrifuged for 10 min (15,000g; 4 °C) to collect plasma. Brain and plasma samples were stored at −80 °C until further analysis.
Identification and quantification of test compound in mouse brain and plasma were performed using a modification of a previously described method with an internal standard of naloxone-d5.[126] Compounds were extracted from both blood and brain by a liquid/liquid extraction. Briefly, brain tissue samples were homogenized 1-part tissue to 3-parts water. Seven-point calibration curves (10–1000 ng/mL or ng/g) in plasma, drug free control, a negative control without internal standard in plasma and brain, and quality control specimens in plasma and brain (30, 300, and 750 ng/mL or ng/g) were prepared and analyzed with each batch of samples. […], was added at 10 ng/mL concentration to aliquots of either 100 μL for blood or 400 μL for brain homogenate to each calibrator, control, or specimen except the negative control. To these samples, 0.5 mL of saturated carbonate/bicarbonate buffer (1:1, pH 9.5) and 2.0 mL of chloroform/2-propanol (8:2) were added. The samples were then mixed and centrifuged. The top, aqueous layer was aspirated, and the organic layer was transferred to a clean test tube and evaporated to dryness under nitrogen. The samples were then reconstituted in 80:[…] and transferred to autosampler vials for analysis. The chromatographic separation of test compounds and naloxone-d5 was accomplished using a Shimadzu Nexera X2 liquid chromatography system and a Zorbax XDB-C18 4.6 × 75 mm, 3.5 μm column (Agilent Technologies, Santa Clara, CA). The mobile phases consisted of (A) water with 1 g/L ammonium formate and 0.1% formic acid, and (B) methanol. The flow rate was set to 1 mL/min. The mobile phase started with 20% B and was increased to 80% B at 1.0 min and held constant for 1.5 min before returning to 20% B. The system detector was a Sciex 6500 QTRAP system with an IonDrive Turbo V source for TurboIonSpray (Sciex, Ontario, Canada) that had the curtain gas flow rate set at 30 mL/min and the ion source gases 1 and 2 at 60 mL/min. The source temperature was set at 650 °C with an ionspray voltage was 5500 V. The declustering potential was 58 eV.
The primary dependent measures are (1) the plasma concentration of the test compound (μg/mL), (2) the brain concentration of the test compound (μg/g), and (3) the brain-to-plasma concentration ratio calculated as [brain]/[plasma]. Concentrations were determined by a linear regression plot based on peak ratios of the calibrators. Data are shown as mean ± SEM. Data were compared using one-way ANOVA as appropriate and a significant ANOVA was followed by a Dunnet’s post hoc test as appropriate. Statistical significance was defined as p < 0.05.

MOR [2] = biological target: T2, MOR (Mus musculus, UniProt P42866); assay: Competitive radioligand binding assay, MOR; design: expressed in transfected cells; membrane homogenate; conditions: for radioligand binding affinity (Ki, nM) MOR: [3H]naloxone, mMOR-CHO membranes
male Swiss Webster mice [3] = assay: Warm-water tail immersion assay, agonism (single dose screen and potency); assay type: in vivo, mouse; conditions: for ED50: Mus musculus, sc, read-out: potency ED50 [95% CI] mg/kg, 20 min prior to tail withdrawal latency measurement, male Swiss Webster mice; for ED50 / ED75: s.c.; for ED75: warm-water tail immersion; for percent MPE: single dose 10 mg/kg s.c., withdrawal latency 20 min after administration
in vitro [4] = conditions: human, s9
male Swiss Webster mice [5] = assay: Warm-water tail immersion assay, receptor selectivity study; assay type: in vivo, mouse; conditions: for antagonism of antinociceptive effects by nor-BNI (KOR antagonist) pretreatment: 10 mg/kg nor-BNI s.c. 24 h prior to 0.1 mg/kg test compound s.c. (23 also 0.05 mg/kg); for antagonism of antinociceptive effects by β-FNA (MOR antagonist) pretreatment: 10 mg/kg β-FNA s.c. 24 h prior to 0.1 mg/kg test compound s.c.; for antagonism of antinociceptive effects by NTI (DOR antagonist) pretreatment: 15 mg/kg NTI s.c. 30 min prior to 0.1 mg/kg test compound s.c. (23 also 0.05 mg/kg); for antagonism of antinociceptive effects by NTI and nor-BNI pretreatment together: nor-BNI 10 mg/kg + NTI 15 mg/kg s.c. prior to test compound
in vitro [6] = conditions: Sprague-Dawley, rat, s9
KOR [7] = biological target: T3, KOR (Mus musculus, UniProt P33534); assay: [35S]-GTPγS functional assay, KOR; assay type: biochemical; conditions: for EC50: mKOR-CHO membranes; for Emax: percent of U50,488 full agonist control
T3 construct: expressed in transfected cells; membrane homogenate

KOR [8] = biological target: T3, KOR; assay: Competitive radioligand binding assay, KOR; conditions: for radioligand binding affinity (Ki, nM) KOR: [3H]diprenorphine, mKOR-CHO membranes; for selectivity ratio δ/κ / selectivity ratio μ/κ: ratio of Ki values
MOR [9] = biological target: T2, MOR; assay: [35S]-GTPγS functional assay, MOR; assay type: biochemical; design: expressed in transfected cells; membrane homogenate; conditions: for EC50: mMOR-CHO membranes; for [35S]-GTPγS functional activity MOR Emax (%): percent of DAMGO full agonist control; for Emax: read-out: [35S]-GTPγS functional activity MOR Emax (%)
male Swiss Webster mice [10] = assay: Warm-water tail immersion assay, time course study; assay type: in vivo, mouse; conditions: for onset of antinociceptive effects: s.c.
[11] = warm water tail immersion studies (Figure 3)

| Compound | Ki (DOR) | time point of highest plasma concentration [1] | Ki (MOR [2]) | radioligand binding affinity (Ki, nM) MOR (MOR [2]) | ED50 (male Swiss Webster mice [3]) | ED75 (male Swiss Webster mice [3]) | percent MPE (male Swiss Webster mice [3]) | half-life (in vitro [4]) | microsomal CLint (in vitro [4]) | antagonism of antinociceptive effects by nor-BNI (KOR antagonist) pretreatment (male Swiss Webster mice [5]) | antagonism of antinociceptive effects by β-FNA (MOR antagonist) pretreatment (male Swiss Webster mice [5]) | antagonism of antinociceptive effects by NTI (DOR antagonist) pretreatment (male Swiss Webster mice [5]) | antagonism of antinociceptive effects by NTI and nor-BNI pretreatment together (male Swiss Webster mice [5]) | EC50 (KOR [7]) | Emax (KOR [7]) | Ki (KOR [8]) | radioligand binding affinity (Ki, nM) KOR (KOR [8]) | selectivity ratio δ/κ (KOR [8]) | selectivity ratio μ/κ (KOR [8]) | EC50 (MOR [9]) | also measured |
| --- | --- | --- | --- | --- | --- | --- | --- | --- | --- | --- | --- | --- | --- | --- | --- | --- | --- | --- | --- | --- | --- |
| CN(C(=O)/C=C/c1ccco1)[C@H]1CC[C@@]2(O)[C@H]3Cc4ccc(O)c5c4[C@@]2(CCN3CC2CC2)[C@H]1O5.Cl [Compound 21, 17-Cyclopropylmethyl-3,14β-dihydroxy-4,5α-epoxy-6α-[(2E)-3′-(furan-2″-yl)-N-methylprop-2-enamido]morphinan Hydrochloride] | 930 ± 210 pM | 5 min | 200 ± 20 pM | subnanomolar | 0.051 mg/kg | 0.1 mg/kg | ≥ 80% | > 2 h | < 5.8 µL/min/mg | antagonized | not antagonized by β-FNA | antagonized | seemed to compound the decrease | 40 pM | 107 ± 2.6% | 140 ± 20 pM | subnanomolar | 7 | 1 | 580 ± 170 pM | radioligand binding affinity (Ki, nM) DOR (DOR; [3H]diprenorphine, hDOR-CHO membranes): subnanomolar; Kp at 5 min ([1]; brain and plasma): 0.027; Kp at 10 min ([1]; brain and plasma): 0.186; Kp at 0.5 h ([1]; brain and plasma): 0.633; Kp at 1 h ([1]; brain and plasma): 0.938; half-life at 1 h, 1 µM (in vitro [6]): 1.16 h; microsomal CLint at 1 h, 1 µM (in vitro [6]): 10.1 µL/min/mg; Selectivity Ratio MOR/KOR (KOR [8]; supplement csv): 1.43; [35S]-GTPγS functional activity MOR Emax (%) (MOR [9]): low efficacy MOR partial agonism; Emax (MOR [9]): 19.7 ± 0.7%; antinociceptive effects significant until (time postinjection) (male Swiss Webster mice [10]; 0.1 mg/kg s.c.): 3 h; duration of action (male Swiss Webster mice [10]; 0.1 mg/kg s.c.): 3 h; onset of antinociceptive effects (male Swiss Webster mice [10]): approximately 30 min; duration of action (male Swiss Webster mice [10]; [11]): > 3 h |
| CN(C(=O)/C=C/c1ccco1)[C@@H]1CC[C@@]2(O)[C@H]3Cc4ccc(O)c5c4[C@@]2(CCN3CC2CC2)[C@H]1O5.Cl [Compound 23, 17-Cyclopropylmethyl-3,14β-dihydroxy-4,5α-epoxy-6β-[(2E)-3′-(furan-2″-yl)-N-methylprop-2-enamido]morphinan Hydrochloride] | 7930 ± 1020 pM | 5 min | 780 ± 50 pM | subnanomolar | 0.01 mg/kg | 0.05 mg/kg | ≥ 80% | > 2 h | < 5.8 µL/min/mg | slight, nonsignificant decrease | not antagonized by β-FNA | antagonized by NTI | enhanced antagonism | 140 ± 20 pM | 106.5 ± 0.7% | 220 ± 30 pM | subnanomolar | 36 | 4 | 5310 ± 530 pM | Kp at 5 min ([1]; brain): 0.05; Kp at 10 min ([1]; brain): 0.762; Kp at 0.5 h ([1]; brain): 0.645; Kp at 1 h ([1]; brain): 1.45; half-life (in vitro [6]): > 2 h; microsomal CLint (in vitro [6]): < 5.8 µL/min/mg; [35S]-GTPγS functional activity MOR Emax (%) (MOR [9]): low efficacy MOR partial agonism; Emax (MOR [9]): 14.2 ± 1.77%; antinociceptive effects significant until (time postinjection) (male Swiss Webster mice [10]; 0.05 mg/kg s.c.): 3 h; antinociceptive effects significant until (time postinjection) (male Swiss Webster mice [10]; 0.1 mg/kg s.c.): 6 h; duration of action (male Swiss Webster mice [10]; 0.5 mg/kg s.c.): 3 h; onset of antinociceptive effects (male Swiss Webster mice [10]): approximately 30 min; duration of action (male Swiss Webster mice [10]; [11]): > 3 h |
